Source: patent publication US20160333419A1, “GENE SIGNATURES ASSOCIATED WITH SENSITIVITY TO MDM2 INHIBITORS” (DAIICHI SANKYO COMPANY, LIMITED, priority 2014, published 2016)

Assays:
Test in all cases: OncoPanel cytotoxicity assay
Type in all cases: cell-based
[1] = system: NCI-H520; conditions: Homo sapiens, 72 hour incubation
Description: (§1) Cells were grown in RPMI 1640, 10% FBS, 2 mM L-alanyl-L-Glutamine, 1 mM Na Pyruvate, or a special medium in a humidified atmosphere of 5% CO2 at 37° C. Cells were seeded into 384-well plates and incubated in a humidified atmosphere of 5% CO2 at 37° C. Test compounds were added 24 hours post cell seeding. At the same time, a time zero, untreated cell plate was generated as a control. After a 72 hour incubation period, cells were fixed and stained with nuclear dye to allow visualization of nuclei.
(§2) Compounds were serially diluted 3.16-fold and assayed over 10 concentrations of inhibitor in a final assay concentration of 0.1% DMSO from the highest test concentration specified in the sample information chapter. Automated fluorescence microscopy was carried out using a GE Healthcare InCell Analyzer 1000, and images were collected with a 4× objective. Twelve bit tiff images were acquired using the InCell Analyzer 1000 3.2 and analyzed with Developer Toolbox 1.6 software.
(§3) Cell proliferation was measured by the signal intensity of the incorporated nuclear dye. The cell proliferation assay output is referred to as the relative cell count. To determine the cell proliferation end point, the cell proliferation data output is transformed to percent of control (POC) using the following formula: […]
(§4) Relative cell count IC50 (IC50) is the test compound's concentration that produces 50% of the cell proliferation inhibitory response or 50% cytotoxicity level. IC50 values were calculated using nonlinear regression to fit data to a sigmoidal 4 point, 4 parameter One-Site dose response model, where: y (fit)=A+[(B−A)/(1+((C/x)̂D))]. Curve-fitting, IC50 calculations and report generation were performed using a custom data reduction engine MathIQ based software (AIM). […] In these cases, the IC50 values were expressed as 40 μM and 10 μM, respectively (Table 2).

[2] = system: HLF; conditions: Homo sapiens, 72 hour incubation
Description: as §1, §2, §3, §4

[3] = system: SJRH30; conditions: Homo sapiens, 72 hour incubation
Description: as §1, §2, §3, §4

[4] = system: BV-173; conditions: Homo sapiens, 72 hour incubation
Description: as §1, §2, §3, §4

[5] = system: Capan-1; conditions: Homo sapiens, 72 hour incubation
Description: as §1, §2, §3, §4

[6] = system: ES-2; conditions: Homo sapiens, 72 hour incubation
Description: as §1, §2, §3, §4

[7] = system: CGTH-W-1; conditions: Homo sapiens, 72 hour incubation
Description: as §1, §2, §3, §4

[8] = system: 769-P; conditions: Homo sapiens, 72 hour incubation
Description: as §1, §2, §3, §4

[9] = system: BC-1; conditions: Homo sapiens, BC1, 72 hour incubation
Description: as §1, §2, §3, §4

[10] = system: SNU-423; conditions: Homo sapiens, 72 hour incubation
Description: as §1, §2, §3, §4

[11] = system: MOLT-16; conditions: Homo sapiens, 72 hour incubation
Description: as §1, §2, §3, §4

[12] = system: HS 746T; conditions: Homo sapiens, Hs746T, 72 hour incubation
Description: as §1, §2, §3, §4

[13] = system: SW1783; conditions: Homo sapiens, 72 hour incubation
Description: as §1, §2, §3, §4

[14] = system: SJSA1; conditions: Homo sapiens, SJSA-1, 72 hour incubation
Description: as §1, §2, §3, §4

[15] = system: SNU-5; conditions: Homo sapiens, 72 hour incubation
Description: as §1, §2, §3, §4

[16] = system: A101D; conditions: Homo sapiens, 72 hour incubation
Description: as §1, §2, §3, §4

[17] = system: SKO-007; conditions: Homo sapiens, 72 hour incubation
Description: as §1, §2, §3, §4

[18] = system: PANC-1; conditions: Homo sapiens, 72 hour incubation
Description: as §1, §2, §3, §4

[19] = system: NCIH446; conditions: Homo sapiens, NCI-H446, 72 hour incubation
Description: as §1, §2, §3, §4

[20] = system: U266B1; conditions: Homo sapiens, 72 hour incubation
Description: as §1, §2, §3, §4

[21] = system: U-138MG; conditions: Homo sapiens, U138-MG, 72 hour incubation
Description: as §1, §2, §3, §4

[22] = system: L-428; conditions: Homo sapiens, 72 hour incubation
Description: as §1, §2, §3, §4

[23] = system: BeWo; conditions: Homo sapiens, 72 hour incubation
Description: as §1, §2, §3, §4

[24] = system: AU565; conditions: Homo sapiens, 72 hour incubation
Description: as §1, §2, §3, §4

[25] = system: Jurkat; conditions: Homo sapiens, 72 hour incubation
Description: as §1, §2, §3, §4

[26] = system: A-673; conditions: Homo sapiens, A673, 72 hour incubation
Description: as §1, §2, §3, §4

[27] = system: HUH-6 Clone 5; conditions: Homo sapiens, HUH-6-clone5, 72 hour incubation
Description: as §1, §2, §3, §4

[28] = system: SK-UT-1; conditions: Homo sapiens, 72 hour incubation
Description: as §1, §2, §3, §4

[29] = system: MDA MB 468; conditions: Homo sapiens, 72 hour incubation
Description: as §1, §2, §3, §4

[30] = system: NCI-H295R; conditions: Homo sapiens, 72 hour incubation
Description: as §1, §2, §3, §4

[31] = system: K562; conditions: Homo sapiens, 72 hour incubation
Description: as §1, §2, §3, §4

[32] = system: HPAF-II; conditions: Homo sapiens, 72 hour incubation
Description: as §1, §2, §3, §4

[33] = system: Mia PaCa-2; conditions: Homo sapiens, 72 hour incubation
Description: as §1, §2, §3, §4

[34] = system: LS-174T; conditions: Homo sapiens, LS174T, 72 hour incubation
Description: as §1, §2, §3, §4

[35] = system: Cal 27; conditions: Homo sapiens, 72 hour incubation
Description: as §1, §2, §3, §4

[36] = system: CAL-62; conditions: Homo sapiens, 72 hour incubation
Description: as §1, §2, §3, §4

[37] = system: ChaGoK1; conditions: Homo sapiens, ChaGo-K-1, 72 hour incubation
Description: as §1, §2, §3, §4

[38] = system: C32TG; conditions: Homo sapiens, 72 hour incubation
Description: as §1, §2, §3, §4

SMILES: CC1(C)CCC2(CC1)N[C@@H](C(=O)N[C@@H]1CC[C@@H](C(N)=O)OC1)[C@H](c1ccnc(Cl)c1F)[C@]21C(=O)Nc2cc(Cl)ccc21 [Compound B, (3′R,4′S,5′R)—N-[(3R,6S)-6-carbamoyltetrahydro-2H-pyran-3-yl]-6″-chloro-4′-(2-chloro-3-fluoropyridin-4-yl)-4,4-dimethyl-2″-oxo-1″,2″-dihydrodispiro[cyclohexane-1,2′-pyrrolidine-3′,3″-indole]-5′-carboxamide]
- IC50 [1]: > 10 µM
- IC50 [2]: > 10 µM
- IC50 [3]: 7.24 µM
- IC50 [4]: 0.0873 µM
- IC50 [5]: > 10 µM
- IC50 [6]: 6.3 µM
- IC50 [7]: 8.04 µM
- IC50 [8]: 0.036 µM
- IC50 [9]: 0.074 µM
- IC50 [10]: > 10 µM
- IC50 [11]: 0.0598 µM
- IC50 [12]: 5.85 µM
- IC50 [13]: > 10 µM
- IC50 [14]: 0.0261 µM
- IC50 [15]: > 10 µM
- IC50 [16]: 0.0314 µM
- IC50 [17]: 8.64 µM
- IC50 [18]: 6.73 µM
- IC50 [19]: > 10 µM
- IC50 [20]: > 10 µM
- IC50 [21]: > 10 µM
- IC50 [22]: > 10 µM
- IC50 [23]: 0.317 µM
- IC50 [24]: > 10 µM
- IC50 [25]: > 10 µM
- IC50 [26]: 9.21 µM
- IC50 [27]: 0.0719 µM
- IC50 [28]: > 10 µM
- IC50 [29]: 8.12 µM
- IC50 [30]: > 10 µM
- IC50 [31]: > 10 µM
- IC50 [32]: 5.79 µM
- IC50 [33]: 7.22 µM
- IC50 [34]: 0.0615 µM
- IC50 [35]: > 10 µM
- IC50 [36]: > 10 µM
- IC50 [37]: > 10 µM
- IC50 [38]: 0.0329 µM

SMILES: CC[C@@H]1CNC2(CC2)CN1C(=O)[C@@H]1C[C@@H](F)CN1C(=O)C1=C(C(C)C)N2C(=N[C@@](C)(c3ccc(Cl)nc3)[C@H]2c2ccc(Cl)c(F)c2)S1 [Compound A, [(5R,6S)-5-(4-Chloro-3-fluorophenyl)-6-(6-chloropyridin-3-yl)-6-methyl-3-(propan-2-yl)-5,6-dihydroimidazo[2,1-b][1,3]thiazol-2-yl][(2S,4R)-2-{[(6R)-6-ethyl-4,7-diazaspiro[2.5]oct-7-yl]carbonyl}-4-fluoropyrrolidin-1-yl]methanone]
- IC50 [1]: > 40 µM
- IC50 [2]: > 40 µM
- IC50 [3]: > 40 µM
- IC50 [4]: 0.601 µM
- IC50 [5]: > 40 µM
- IC50 [6]: 14.5 µM
- IC50 [7]: > 40 µM
- IC50 [8]: 0.442 µM
- IC50 [9]: 0.464 µM
- IC50 [10]: > 40 µM
- IC50 [11]: 0.236 µM
- IC50 [12]: 38.9 µM
- IC50 [13]: > 40 µM
- IC50 [14]: 0.214 µM
- IC50 [15]: > 40 µM
- IC50 [16]: 0.233 µM
- IC50 [17]: > 40 µM
- IC50 [18]: > 40 µM
- IC50 [19]: > 40 µM
- IC50 [20]: > 40 µM
- IC50 [21]: > 40 µM
- IC50 [22]: > 40 µM
- IC50 [23]: 1.49 µM
- IC50 [24]: 23.7 µM
- IC50 [25]: > 40 µM
- IC50 [26]: > 40 µM
- IC50 [27]: 0.329 µM
- IC50 [28]: > 40 µM
- IC50 [29]: 36.2 µM
- IC50 [30]: > 40 µM
- IC50 [31]: > 40 µM
- IC50 [32]: > 40 µM
- IC50 [33]: > 40 µM
- IC50 [34]: 0.497 µM
- IC50 [35]: > 40 µM
- IC50 [36]: > 40 µM
- IC50 [37]: > 40 µM
- IC50 [38]: 0.36 µM
